From US5681685A, “Photopolymerizable composition containing squarylium compound” (Kyowa Hakko Kogyo Co., Ltd., priority 1994, dated 1997) come the findings set out here.

A short description of the first data set: Degraded rate of squarylium compound in photosensitive resin solution with iron(II) hexafluorophosphate complex (Example 8). The format is physicochemical. Particulars: 40° C., 32 days, light-screened, ethyl cellosolve, relative to Compound (A). Also on record: key: degraded rate relative to that of Compound (A). As to the method:
(§1) 0.5 g of pentaerythritol triacrylate, 0.5 g of butyl methacrylate/acrylic acid copolymer (weight-average molecular weight 3,100, copolymerization ratio 66/34), 60 mg of 2,4,6-tris(trichloromethyl)-s-triazine and 2 mg of a squarylium compound were dissolved in ethyl cellosolve to 25 ml to give a photosensitive resin solution. This solution was light-screened and allowed to stand at 40° C. for 3 days. The absorbance at the maximum absorption wavelength present in 600 to 700 nm was measured with a spectrophotometer before (A1) and after (A2) being allowed to stand. The degraded rate of the squarylium compound was obtained according to the following equation:
(§2) Degraded rate (%)=(A1-A2)/A1 ×100
0.5 g of pentaerythritol triacrylate, 60 mg of polymethyl methacrylate (manufactured by Aldrich; weight-average molecular weight 12,000), 90 mg of (.eta.^6 -benzene)(.eta.^5 cyclopentadienyl)iron(II) hexafluorophosphate and 2 mg of a squarylium compound were dissolved in ethyl cellosolve to 25 ml to give a photosensitive resin solution. Thereafter, the same procedures as those in Example 7 were repeated except that a time for being allowed to stand of 3 days was replaced with that of 32 days to give the degraded rate of the squarylium compound. The degraded rate of squarylium Compounds 1 to 9 are shown as a relative value based on the degraded rate of Compound (A) in Table 6.
On to `CC(C)CN1C(=CC2=C([O-])C(=CC3=[N+](CC(C)C)c4ccc5ccccc5c4C3(C)C)C2=O)C(C)(C)c2c1ccc1ccccc21` [Compound 5], for which the “Relative value of degraded rate” value is reported as 0.42.

For the compound `CCCCCN1C(=CC2=C([O-])C(=CC3=[N+](CCCCC)c4ccc5ccccc5c4C3(C)C)C2=O)C(C)(C)c2c1ccc1ccccc21` [Compound 6], the “Relative value of degraded rate” value came to 0.46.

On to `CCCCN1C(=CC2=C([O-])C(=CC3=[N+](CCCC)c4ccc5ccccc5c4C3(C)C)C2=O)C(C)(C)c2c1ccc1ccccc21` [Compound 7], for which the “Relative value of degraded rate” value is recorded as 0.56.

As to `CC(C)CCN1C(=CC2=C([O-])C(=CC3=[N+](CCC(C)C)c4ccc5ccccc5c4C3(C)C)C2=O)C(C)(C)c2c1ccc1ccccc21` [Compound 8], the “Relative value of degraded rate” value was found to be 0.43.

As to `CCCCCCN1C(=CC2=C([O-])C(=CC3=[N+](CCCCCC)c4ccc5ccccc5c4C3(C)C)C2=O)C(C)(C)c2c1ccc1ccccc21` [Compound 9], the “Relative value of degraded rate” value amounted to 0.52.

Another data set is described as follows: Degraded rate of squarylium compound in photosensitive resin solution with 2,4,6-tris(trichloromethyl)-s-triazine (Example 7). Conditions: 40° C., 3 days, light-screened, ethyl cellosolve, relative to Compound (A). The format is physicochemical. The protocol:
as §1, §2
The degraded rates of squarylium Compounds 1 to 9 are shown as a relative value based on the degraded rate of Compound (A) in Table 5.
With `CC(C)CN1C(=CC2=C([O-])C(=CC3=[N+](CC(C)C)c4ccc5ccccc5c4C3(C)C)C2=O)C(C)(C)c2c1ccc1ccccc21` [Compound 5], the “Relative value of degraded rate” value stood at 0.15.

Consider `CCCCCN1C(=CC2=C([O-])C(=CC3=[N+](CCCCC)c4ccc5ccccc5c4C3(C)C)C2=O)C(C)(C)c2c1ccc1ccccc21` [Compound 6], for which the “Relative value of degraded rate” value is listed as 0.28.

As for `CCCCN1C(=CC2=C([O-])C(=CC3=[N+](CCCC)c4ccc5ccccc5c4C3(C)C)C2=O)C(C)(C)c2c1ccc1ccccc21` [Compound 7], the “Relative value of degraded rate” value stood at 0.31.

`CC(C)CCN1C(=CC2=C([O-])C(=CC3=[N+](CCC(C)C)c4ccc5ccccc5c4C3(C)C)C2=O)C(C)(C)c2c1ccc1ccccc21` [Compound 8]: the “Relative value of degraded rate” value came out at 0.32.

For `CCCCCCN1C(=CC2=C([O-])C(=CC3=[N+](CCCCCC)c4ccc5ccccc5c4C3(C)C)C2=O)C(C)(C)c2c1ccc1ccccc21` [Compound 9], the “Relative value of degraded rate” value amounted to 0.26.

A further data set can be described thus: Sensitivity of photosensitive layer with 3,3',4,4'-tetrakis(tert-butyldioxycarbonyl)benzophenone (Example 11). Particulars: 630 nm. The text has this:
(§3) 100 parts of pentaerythritol triacrylate, 100 parts of polymethacrylate polymer [synthesized according to the methods described in Jikkenkagakukoza, Maruzen K. K., 4th edition, volume 28, page 121, 1992; Kobunshigosei no Jikkenho (Experimental method for polymer synthesis), Kagakudojin K. K., coauthored by Takayuki Otsu and Masaetsu Kinoshita, page 138, 1972; average molecular weight 150,000; methyl ester/isobutyl ester/cyclohexyl ester/free carboxylic acid=27/36/25/12], 7.9 parts of 2,4,6-tris(trichloromethyl)-s-triazine and 1 part of a squarylium compound were dissolved in 1900 parts of ethyl cellosolve to give a photosensitive resin solution. This photosensitive solution was spin-coated on an aluminium plate treated with grinding and anodic oxidation, at 1000 rpm so that the dry-state thickness became 2 μm. On this, a 10% aqueous polyvinyl alcohol (Kurarey Poval 706) solution was spin-coated at 1500 rpm so that the dry-state thickness became 1 μm to give a over-coat layer. A step tablet was piled closely on the resulting photosensitive layer, and the rays having the wavelength around 630, 650 or 680 nm were irradiated from 3kw ultra-high pressure mercury lamp through a glass filter. The rays having the wavelength around 630 nm (155 μJ/cm^2 ·s) were obtained by passing the rays from the above mercury lamp through a colored glass filter R-61, an interference filter KL-63 (both were manufactured by Toshiba Glass Co., Ltd.) and a heat rays absorbing filter HA-30 (manufactured by HOYA Corporation), the rays having the wavelength around 650 nm (177 μJ/cm^2 ·s) were obtained by passing the rays from the above mercury lamp through a colored glass filter R-63, an interference filter KL-65 (both were manufactured by Toshiba Glass Co., Ltd.) and HA-30 and the rays having the wavelength around 680 nm (88 μJ/cm^2 ·s) were obtained by passing the rays from the above mercury lamp through a glass filter R-66, an interference filter KL-68 (both were manufactured by Toshiba Glass Co., Ltd.) and HA-30. Then, the development was carried out with a PS plate developer DN3C (manufactured by Fujiphoto Film Co., Ltd.) diluted 1.5-folds with distilled water, an ink was attached thereon with a PS plate developing ink PI-2 (manufactured by Fujiphoto Film Co., Ltd.) and the sensitivity was scored by obtaining an energy amount necessary for hardening from hardening step number with an ink attached thereto.
The sensitivity when the rays having the wavelength around 630 nm were irradiated was obtained by repeating the same procedures as those of Example 9 except that 8 parts of 3,3',4,4'-tetrakis(tert-butyldioxycarbonyl)benzophenone was used in place of 7.9 parts of 2,4,6-tris(tichloromethyl)-s-triazine.
`CC(C)CN1C(=CC2=C([O-])C(=CC3=[N+](CC(C)C)c4ccc5ccccc5c4C3(C)C)C2=O)C(C)(C)c2c1ccc1ccccc21` [Compound 5] registered a Sensitivity of 0.20 mJ/cm^2.

Regarding `CCCCCN1C(=CC2=C([O-])C(=CC3=[N+](CCCCC)c4ccc5ccccc5c4C3(C)C)C2=O)C(C)(C)c2c1ccc1ccccc21` [Compound 6], the Sensitivity turned out to be 0.099 mJ/cm^2.

`CCCCN1C(=CC2=C([O-])C(=CC3=[N+](CCCC)c4ccc5ccccc5c4C3(C)C)C2=O)C(C)(C)c2c1ccc1ccccc21` [Compound 7] returned a Sensitivity of 0.20 mJ/cm^2.

In the case of `CCCCCCN1C(=CC2=C([O-])C(=CC3=[N+](CCCCCC)c4ccc5ccccc5c4C3(C)C)C2=O)C(C)(C)c2c1ccc1ccccc21` [Compound 9], the Sensitivity is recorded as 0.17 mJ/cm^2.

Another data set is described as follows: Sensitivity of photosensitive layer with 2,4,6-tris(trichloromethyl)-s-triazine (Example 9). Particulars: 630 nm; energy necessary for hardening; s-triazine radical generator.
Text: as §3
For the compound `CC(C)CN1C(=CC2=C([O-])C(=CC3=[N+](CC(C)C)c4ccc5ccccc5c4C3(C)C)C2=O)C(C)(C)c2c1ccc1ccccc21` [Compound 5], the Sensitivity was 0.47 mJ/cm^2.

Turning to `CCCCCN1C(=CC2=C([O-])C(=CC3=[N+](CCCCC)c4ccc5ccccc5c4C3(C)C)C2=O)C(C)(C)c2c1ccc1ccccc21` [Compound 6], the Sensitivity is recorded as 0.56 mJ/cm^2.

As to `CCCCN1C(=CC2=C([O-])C(=CC3=[N+](CCCC)c4ccc5ccccc5c4C3(C)C)C2=O)C(C)(C)c2c1ccc1ccccc21` [Compound 7], the Sensitivity turned out to be 0.47 mJ/cm^2.

Staying with this data set, now noted: 650 nm; energy necessary for hardening; s-triazine radical generator.
In the case of `CC(C)CN1C(=CC2=C([O-])C(=CC3=[N+](CC(C)C)c4ccc5ccccc5c4C3(C)C)C2=O)C(C)(C)c2c1ccc1ccccc21` [Compound 5], the Sensitivity was 0.56 mJ/cm^2.

In turn, `CCCCCN1C(=CC2=C([O-])C(=CC3=[N+](CCCCC)c4ccc5ccccc5c4C3(C)C)C2=O)C(C)(C)c2c1ccc1ccccc21` [Compound 6] registered a Sensitivity of 0.40 mJ/cm^2.

`CCCCN1C(=CC2=C([O-])C(=CC3=[N+](CCCC)c4ccc5ccccc5c4C3(C)C)C2=O)C(C)(C)c2c1ccc1ccccc21` [Compound 7] showed a Sensitivity of 0.40 mJ/cm^2.

Staying with this data set, now noted: 680 nm; energy necessary for hardening; s-triazine radical generator.
In the case of `CC(C)CN1C(=CC2=C([O-])C(=CC3=[N+](CC(C)C)c4ccc5ccccc5c4C3(C)C)C2=O)C(C)(C)c2c1ccc1ccccc21` [Compound 5], the Sensitivity came out at 0.28 mJ/cm^2.

In turn, `CCCCCN1C(=CC2=C([O-])C(=CC3=[N+](CCCCC)c4ccc5ccccc5c4C3(C)C)C2=O)C(C)(C)c2c1ccc1ccccc21` [Compound 6] came in with a Sensitivity of 0.37 mJ/cm^2.

Compound `CCCCN1C(=CC2=C([O-])C(=CC3=[N+](CCCC)c4ccc5ccccc5c4C3(C)C)C2=O)C(C)(C)c2c1ccc1ccccc21` [Compound 7] had a Sensitivity of 0.37 mJ/cm^2.

A short description of another data set: Optical absorption property in chloroform. Type of data set: physicochemical. Particulars: solvent chloroform.
With `CC(C)CN1C(=CC2=C([O-])C(=CC3=[N+](CC(C)C)c4ccc5ccccc5c4C3(C)C)C2=O)C(C)(C)c2c1ccc1ccccc21` [Compound 5], the logε was 5.5 and the λ max is 669 nm.

In turn, `CCCCCN1C(=CC2=C([O-])C(=CC3=[N+](CCCCC)c4ccc5ccccc5c4C3(C)C)C2=O)C(C)(C)c2c1ccc1ccccc21` [Compound 6] returned a logε of 5.5 and a λ max of 667 nm.

Consider `CC(C)CCN1C(=CC2=C([O-])C(=CC3=[N+](CCC(C)C)c4ccc5ccccc5c4C3(C)C)C2=O)C(C)(C)c2c1ccc1ccccc21` [Compound 8], for which the logε turned out to be 5.5 and the λ max was 667 nm.

For `CCCCCCN1C(=CC2=C([O-])C(=CC3=[N+](CCCCCC)c4ccc5ccccc5c4C3(C)C)C2=O)C(C)(C)c2c1ccc1ccccc21` [Compound 9], the logε is on record as 5.5 and the λ max turned out to be 668 nm.

Another data set in a line: Sensitivity of photosensitive layer with iron(II) hexafluorophosphate complex and CARBOSET XL-44 (Example 10). Particulars: 630 nm; iron(II) hexafluorophosphate complex, CARBOSET XL-44.
Text: as §3
The sensitivity when the rays having the wavelength around 630 nm were irradiated was obtained by repeating the same procedures as those in Example 9 except that 8 parts of (.eta.^6 -benzene) (.eta.^5 -cyclopentadienyl)iron(II) hexafluorophosphate was used in place of 7.9 parts of 2,4,6-tris(trichloromethyl)-s-triazine and CARBOSET,XL-44 (manufactured by BF Goodrich) was used in place of polymethacrylate polymer (methyl ester/isobutyl ester/cyclohexyl ester/free carboxylic acid=27/36/25/12).
`CC(C)CN1C(=CC2=C([O-])C(=CC3=[N+](CC(C)C)c4ccc5ccccc5c4C3(C)C)C2=O)C(C)(C)c2c1ccc1ccccc21` [Compound 5] had a Sensitivity of 11 mJ/cm^2.

`CCCCCN1C(=CC2=C([O-])C(=CC3=[N+](CCCCC)c4ccc5ccccc5c4C3(C)C)C2=O)C(C)(C)c2c1ccc1ccccc21` [Compound 6]: the Sensitivity turned out to be 5.8 mJ/cm^2.

Consider `CCCCN1C(=CC2=C([O-])C(=CC3=[N+](CCCC)c4ccc5ccccc5c4C3(C)C)C2=O)C(C)(C)c2c1ccc1ccccc21` [Compound 7], for which the Sensitivity was 5.8 mJ/cm^2.

With `CCCCCCN1C(=CC2=C([O-])C(=CC3=[N+](CCCCCC)c4ccc5ccccc5c4C3(C)C)C2=O)C(C)(C)c2c1ccc1ccccc21` [Compound 9], the Sensitivity is 8.7 mJ/cm^2.
